Assay results from patent US6372884B1, “Biologically active compounds and methods of constructing and using the same” (priority 1987, dated 2002).

Experiments:
[1] = tested on: reovirus type 1; design: species or system Balb/c mice; conditions: mouse, in vivo
[2] = tested on: reovirus type 3; design: species or system Balb/c mice; conditions: mouse, in vivo
[3] = tested on: neutralizing monoclonal antibody 9BG5; assay type: binding, mouse
[4] = tested on: type 1 virus; design: species or system Balb/c mice; conditions: mouse, in vivo
[5] = tested on: type 3 virus; design: species or system Balb/c mice; conditions: mouse, in vivo
[6] = tested on: reovirus type 3; design: species or system mice; conditions: mouse, in vivo
[7] = tested on: reovirus type 3; design: species or system Balb/c mice; conditions: mouse, in vivo; remark: listed apart in the source
[8] = tested on: reovirus type 1; design: species or system Balb/c mice; conditions: mouse, in vivo; remark: listed apart in the source
[9] = tested on: […]-infected H9 cells; assay: Flow cytometry: mouse antisera binding to infected H9 cells; assay type: in vivo; conditions: subcutaneous immunization of mice
[10] = tested on: HIV; assay: Blocking of virus binding by gp120 421-438 peptide
Source text: A molecular model for the region 413-455 (FIG. 19) may be constructed based upon these structural concepts, utilizing a light-chain antibody structure known as REI (Bernstein et al., 1977, Mol. Biol. 112:535-542) as a template for the first and third hypervariable region, in which the cysteines in gp120 at positions 418 and 445 form a disulfide bridge. The cysteines are positionally conserved with respect to each other as in the light chain. The model may be energy optimized using molecular mechanics and dynamics. […] The in vitro biological activity of the 421-438 peptide fragment in modulating CD4-depending cellular function and this fragment's ability to induce an anti-HIV response is as described below.

[11] = tested on: recombinant HIV-1 gp120; conditions: rabbits immunized with peptide conjugated to KLH, FIG. 21
Procedure: Antisera was obtained and tested for binding to recombinant HIV-1 gp120 peptide-coated radioimmunoassay plates (using 1 μg/ml gp120 at 50 μl/well, in 0.1 M NaHCO3 and incubating overnight at 4° C.). The indicator antibody was ^125I-labelled anti-rabbit immunoglobulin antibody.

[12] = tested on: HIV; assay: Infectivity assays with rabbit antisera; conditions: in vivo
[13] = tested on: recombinant glycosylated gp120; conditions: radiolabelled immunoprecipitations
Procedure: The immunogenicity of B138 was determined by subcutaneous immunization of mice and rabbits.

Row | Substance | neutralization of L-cell lysis by reovirus type 1 by immune serum [1] | binding of immune serum to type 3 virus coated plates [2] | specific binding of 9BG5 to peptide coated wells [3] | inhibition of plaque formation by type 1 virus by immune serum [4] | inhibition of plaque formation by type 3 virus by immune serum [5] | proliferative response to reovirus type 3 in spleen cells from immunized mice [6] | neutralization of L-cell lysis by reovirus type 3 by immune serum [7] | binding of immune serum to type 1 virus coated plates [8] | binding of mouse antisera to infected H9 cells [9] | blocking of virus binding [10] | level of antiserum antibody bound to gp120 coated plates [11] | elicitation of neutralizing antibodies (infectivity assays with rabbit sera) [12] | immunoprecipitation of recombinant glycosylated gp120 by rabbit antisera [13]
1 | Gln Ser Met --- Trp Ile Gly Ile Val Ser Tyr Ser Gly Ser Gly Leu Asn (WIGIVSYSGSGLN; N-terminal Gln-Ser-Met; printed: Trp Ile Gly Ile Val Ser Tyr Ser Gly Ser Gly Leu Asn) [reo peptide, amino acids 317-332 in the type 3 viral hemagglutinin] | not type 1 | significant binding | Strong reproducible binding | not type 1 | specific inhibition of plaque formation | type specific proliferative response | specifically neutralized | significant binding | – | – | – | – | –
2 | KQFINMWQEVGKAMYAPP [B138] | – | – | – | – | – | – | – | – | preferentially bind | shown to block virus binding | lower levels of bound antibody | could elicit neutralizing antibodies | weakly
